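Values below derive from 48-hour exposures of cells grown in 96-well plates, with endpoints linearly interpolated between the two concentrations bracketing the appropriate inhibition level. Here, GI50 denotes the concentration required for 50% inhibition of growth.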 Activity calls are given as the source filed them. No stated cut-off is given here; in the data, active = GI50 up to about 1.1 µM and inactive = higher.
Key:
Assay in all cases: NCI anticancer screen, dose series, 48 h
[1] = system: NCI/ADR-RES
[2] = system: SK-MEL-5
[3] = system: UACC-62
[4] = system: SF-539
[5] = system: M14
[6] = system: RXF 393
[7] = system: HL-60
[8] = system: OVCAR-5
[9] = system: MCF7
[10] = system: CAKI-1
[11] = system: OVCAR-4
[12] = system: COLO 205
[13] = system: HOP-62
[14] = system: Malme-3M
[15] = system: SK-MEL-2
[16] = system: MDA-MB-231
[17] = system: MOLT-4
[18] = system: HOP-92
[19] = system: BT-549
[20] = system: TK-10

With CN(C)CC1CC/C(=C\c2ccc(O)cc2)C1=O (stereo not given) the GI50 [1] was 5.32 µM (inactive), the GI50 [2] was 8.28 µM (inactive) and the GI50 [3] was 6.12 µM (inactive). For the same compound, the GI50 [4] was 7.8 µM (inactive), the GI50 [5] was 2.14 µM (inactive) and the GI50 [6] was 2.07 µM (inactive). The GI50 [7] was 0.631 µM (active), the GI50 [8] was 17.4 µM (inactive) and the GI50 [9] was 1.66 µM (inactive). The GI50 [10] was 1.63 µM (inactive), the GI50 [11] was 7.38 µM (inactive) and the GI50 [12] was 1.87 µM (inactive). The GI50 [13] was 18.5 µM (inactive), the GI50 [14] was 2.94 µM (inactive) and the GI50 [15] was 8.28 µM (inactive). For the same compound, the GI50 [16] was 4.14 µM (inactive), the GI50 [17] was 1.69 µM (inactive) and the GI50 [18] was 2.48 µM (inactive). For the same compound, the GI50 [19] was 2.06 µM (inactive) and the GI50 [20] was 3.2 µM (inactive).
With CC(=O)O[C@@H](C1C[C@@H](C)[C@H]2[C@@](O)(O1)[C@H](O)[C@@]1(C)C3=CC[C@H]4C(C)(C)[C@@H](OC5OCC(O)C(O)C5O)CC[C@@]45C[C@@]35CC[C@]21C)C(C)(C)O (stereo not given in full) the GI50 [1] was 46.8 µM (inactive), the GI50 [2] was 17.8 µM (inactive) and the GI50 [3] was 18.5 µM (inactive). For the same compound, the GI50 [4] was 15.7 µM (inactive), the GI50 [5] was 29.3 µM (inactive) and the GI50 [6] was 15.9 µM (inactive). For the same compound, the GI50 [7] was 1.56 µM (inactive), the GI50 [8] was 28.6 µM (inactive) and the GI50 [9] was 17.9 µM (inactive). The GI50 [10] was 38.7 µM (inactive), the GI50 [11] was 33.9 µM (inactive) and the GI50 [12] was 22 µM (inactive). The GI50 [13] was 32.7 µM (inactive), the GI50 [14] was 23.8 µM (inactive) and the GI50 [15] was 18.6 µM (inactive). For the same compound, the GI50 [16] was 18.3 µM (inactive), the GI50 [17] was 12.3 µM (inactive) and the GI50 [18] was 23.8 µM (inactive). For the same compound, the GI50 [19] was 26.7 µM (inactive) and the GI50 [20] was 22.6 µM (inactive).
With OCC1OC(NC(=S)NCSCCC(F)(F)C(F)(F)C(F)(F)C(F)(F)C(F)(F)C(F)(F)F)C(O)C(O)C1O (stereo not given) the GI50 [1] was > 100 µM (inactive), the GI50 [2] was > 10 µM (inactive) and the GI50 [3] was 32.7 µM (inactive). The GI50 [4] was 16.6 µM (inactive), the GI50 [5] was 17 µM (inactive) and the GI50 [6] was 35.2 µM (inactive). For the same compound, the GI50 [7] was 49.4 µM (inactive), the GI50 [8] was 56.1 µM (inactive) and the GI50 [9] was 40.8 µM (inactive). For the same compound, the GI50 [10] was 76 µM (inactive), the GI50 [11] was > 100 µM (inactive) and the GI50 [12] was 77.4 µM (inactive). The GI50 [13] was 32.4 µM (inactive), the GI50 [14] was 73.8 µM (inactive) and the GI50 [15] was 51.6 µM (inactive). For the same compound, the GI50 [16] was > 100 µM (inactive), the GI50 [17] was 21.5 µM (inactive) and the GI50 [18] was 22.7 µM (inactive). The GI50 [19] was > 100 µM (inactive) and the GI50 [20] was 49.7 µM (inactive).
For Nc1ncnc2c1ncn2[C@@H]1O[C@H](C(=O)O)[C@@H](O)[C@H]1O [5'-CARBOXY ADENOSINE], the GI50 [1] was > 100 µM (inactive), the GI50 [2] was > 100 µM (inactive) and the GI50 [3] was > 100 µM (inactive). For the same compound, the GI50 [4] was > 100 µM (inactive), the GI50 [5] was > 100 µM (inactive) and the GI50 [6] was > 100 µM (inactive). The GI50 [7] was > 100 µM (inactive), the GI50 [8] was > 100 µM (inactive) and the GI50 [9] was > 100 µM (inactive). For the same compound, the GI50 [10] was > 100 µM (inactive), the GI50 [11] was > 100 µM (inactive) and the GI50 [12] was > 100 µM (inactive). The GI50 [13] was > 100 µM (inactive), the GI50 [14] was > 100 µM (inactive) and the GI50 [15] was > 100 µM (inactive). The GI50 [16] was > 100 µM (inactive), the GI50 [17] was > 100 µM (inactive) and the GI50 [18] was > 100 µM (inactive). The GI50 [19] was > 100 µM (inactive) and the GI50 [20] was > 100 µM (inactive).
On1c(-c2ccccc2)nc2ccccc2c1=S was tested, and the GI50 [1] was 4.2 µM (inactive), the GI50 [2] was 3.58 µM (inactive) and the GI50 [3] was 3.7 µM (inactive). The GI50 [4] was 4.32 µM (inactive), the GI50 [5] was 2.91 µM (inactive) and the GI50 [6] was 25.5 µM (inactive). For the same compound, the GI50 [7] was 2.4 µM (inactive), the GI50 [8] was > 100 µM (inactive) and the GI50 [9] was 6.9 µM (inactive). For the same compound, the GI50 [10] was 5.48 µM (inactive), the GI50 [11] was 2.22 µM (inactive) and the GI50 [12] was 3.12 µM (inactive). For the same compound, the GI50 [13] was 7.35 µM (inactive), the GI50 [14] was 5 µM (inactive) and the GI50 [15] was 8.75 µM (inactive). The GI50 [16] was 70.3 µM (inactive), the GI50 [17] was 2.04 µM (inactive) and the GI50 [18] was > 100 µM (inactive). The GI50 [19] was > 100 µM (inactive) and the GI50 [20] was > 100 µM (inactive).
With NC(Cc1ccc2oc3cc(=O)c4ccccc4c-3nc2c1)C(=O)O (stereo not given) the GI50 [1] was 47.4 µM (inactive), the GI50 [2] was 4.92 µM (inactive) and the GI50 [3] was 11.7 µM (inactive). For the same compound, the GI50 [4] was 20.3 µM (inactive), the GI50 [5] was 12.5 µM (inactive) and the GI50 [6] was 77.6 µM (inactive). The GI50 [7] was 40.8 µM (inactive), the GI50 [8] was 66.7 µM (inactive) and the GI50 [9] was 2.86 µM (inactive). For the same compound, the GI50 [10] was > 79.4 µM (inactive), the GI50 [11] was 67.5 µM (inactive) and the GI50 [12] was 6.97 µM (inactive). For the same compound, the GI50 [13] was 25.9 µM (inactive), the GI50 [14] was 6.52 µM (inactive) and the GI50 [15] was 22.6 µM (inactive). The GI50 [16] was > 79.6 µM (inactive), the GI50 [17] was 41.1 µM (inactive) and the GI50 [18] was > 78.7 µM (inactive). The GI50 [19] was 14.4 µM (inactive) and the GI50 [20] was 69.7 µM (inactive).
For Cc1ccc2c(O)cc(-c3cccs3)nc2n1, the GI50 [1] was 2.9 µM (inactive), the GI50 [2] was 4.72 µM (inactive) and the GI50 [3] was 9.04 µM (inactive). The GI50 [4] was 8.49 µM (inactive), the GI50 [5] was 6.59 µM (inactive) and the GI50 [6] was 18.1 µM (inactive). The GI50 [7] was 2.7 µM (inactive), the GI50 [8] was > 22.3 µM (inactive) and the GI50 [9] was 3.86 µM (inactive). For the same compound, the GI50 [10] was 15.4 µM (inactive), the GI50 [11] was > 90.6 µM (inactive) and the GI50 [12] was 6.98 µM (inactive). The GI50 [13] was 37.9 µM (inactive), the GI50 [14] was 15.3 µM (inactive) and the GI50 [15] was > 25.9 µM (inactive). For the same compound, the GI50 [16] was > 72.6 µM (inactive), the GI50 [17] was 9.64 µM (inactive) and the GI50 [18] was 57 µM (inactive). For the same compound, the GI50 [19] was > 100 µM (inactive) and the GI50 [20] was > 100 µM (inactive).

— ChEMBL document CHEMBL1201862, “PubChem BioAssay data set” (2004)
